Patent US9487519B2, “5,6-Dialkyl-7-aminotriazolopyrimidines, their preparation and their use for controlling harmful fungi, and compositions comprising these compounds” (BASF SE, priority 2004, dated 2016)

Key:
[1] = test system: Phytophthora infestans; format: in vivo; settings: 250 ppm, potted tomato plants sprayed to runoff, infected next day, assessed after 6 days; untreated plants 100% infected
[2] = test system: Plasmopara viticola; experiment: Activity against Peronospora of grapevines caused by Plasmopara viticola (Use Example 1); format: in vivo; settings: 250 ppm, potted vines sprayed to runoff, inoculated next day; untreated plants 95% infected
Procedure: The active compounds were prepared as a stock solution comprising 25 mg of active compound which was made up to 10 ml using a mixture of acetone and/or DMSO and the emulsifier Uniperol® EL (wetting agent having emulsifying and dispersing agent based on ethoxylated alkylphenols) in a ratio by volume of solvent/emulsifier of 99/1. The mixture was then made up to 100 ml with water. This stock solution was, using the solvent/emulsifier/water mixture described, diluted to the active compound concentration stated below.
Leaves of potted vines were sprayed to runoff point with an aqueous suspension having the concentration of active compound stated below. The next day, the undersides of the leaves were inoculated with an aqueous sporangia suspension of Plasmopara viticola. The vines were then initially placed in a water-vapor-saturated chamber at 24° C. for 48 hours and then in a greenhouse at temperatures between 20° C. and 30° C. for 5 days. After this time, the plants were once more placed in a humid chamber for 16 hours to promote the eruption of sporangiophores. The extent of the development of the infection on the undersides of the leaves was then determined visually.

CCCCCCCCc1c(CC)nc2ncnn2c1N [I-2, 7-amino-5-ethyl-6-octyl[1,2,4]triazolo[1,5-a]pyrimidine]
infection (late blight), determined visually [1]: no infection | infection on the undersides of the leaves, determined visually [2]: no infection
